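Where inhibition never reached the appropriate level, the endpoint shown equals the highest concentration tested. Otherwise, values were interpolated linearly from a five-concentration, 48-hour dose response in 96-well plates. Definition used: TGI = concentration required for complete inhibition of growth.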
Experiments:
Experiment in all cases: inhibition of tumour cell growth, NCI panel, 48 h
786-0 renal = test system: 786-0 renal
A498 renal = test system: A498 renal
A549 NSCLC = test system: A549 NSCLC
ACHN renal = test system: ACHN renal
CAKI-1 renal = test system: CAKI-1 renal
CCRF-CEM leukemia = test system: CCRF-CEM leukemia
COLO 205 colon = test system: COLO 205 colon
DLD-1 colon = test system: DLD-1 colon
DMS 114 small cell lung = test system: DMS 114 small cell lung
DMS 273 small cell lung = test system: DMS 273 small cell lung
EKVX NSCLC = test system: EKVX NSCLC
HCC-2998 colon = test system: HCC-2998 colon
HCT-116 colon = test system: HCT-116 colon
HCT-15 colon = test system: HCT-15 colon
HL-60(TB) leukemia = test system: HL-60(TB) leukemia
HOP-18 NSCLC = test system: HOP-18 NSCLC
HOP-62 NSCLC = test system: HOP-62 NSCLC
HOP-92 NSCLC = test system: HOP-92 NSCLC
HT29 colon = test system: HT29 colon
IGROV1 ovarian = test system: IGROV1 ovarian
K-562 leukemia = test system: K-562 leukemia
KM12 colon = test system: KM12 colon
KM20L2 colon = test system: KM20L2 colon
LOX IMVI melanoma = test system: LOX IMVI melanoma
LXFL 529 NSCLC = test system: LXFL 529 NSCLC
M14 melanoma = test system: M14 melanoma
M19-MEL melanoma = test system: M19-MEL melanoma
MALME-3M melanoma = test system: MALME-3M melanoma
MOLT-4 leukemia = test system: MOLT-4 leukemia
NCI-H226 lung = test system: NCI-H226 lung
NCI-H23 lung = test system: NCI-H23 lung
NCI-H460 lung = test system: NCI-H460 lung
NCI-H522 lung = test system: NCI-H522 lung
OVCAR-3 ovarian = test system: OVCAR-3 ovarian
OVCAR-4 ovarian = test system: OVCAR-4 ovarian
OVCAR-5 ovarian = test system: OVCAR-5 ovarian
OVCAR-8 ovarian = test system: OVCAR-8 ovarian
RXF 393 renal = test system: RXF 393 renal
RXF-631 renal = test system: RXF-631 renal
SF-268 CNS = test system: SF-268 CNS
SF-295 CNS = test system: SF-295 CNS
SF-539 CNS = test system: SF-539 CNS
SK-MEL-2 melanoma = test system: SK-MEL-2 melanoma
SK-MEL-28 melanoma = test system: SK-MEL-28 melanoma
SK-MEL-5 melanoma = test system: SK-MEL-5 melanoma
SK-OV-3 ovarian = test system: SK-OV-3 ovarian
SN12C renal = test system: SN12C renal
SNB-19 CNS = test system: SNB-19 CNS
SNB-75 CNS = test system: SNB-75 CNS
SNB-78 CNS = test system: SNB-78 CNS
SR leukemia = test system: SR leukemia
TK-10 renal = test system: TK-10 renal
U251 CNS = test system: U251 CNS
UACC-257 melanoma = test system: UACC-257 melanoma
UACC-62 melanoma = test system: UACC-62 melanoma
UO-31 renal = test system: UO-31 renal
XF 498 CNS = test system: XF 498 CNS
RPMI-8226 leukemia = test system: RPMI-8226 leukemia
SW-620 colon = test system: SW-620 colon

Measured: TGI

CCOC(=O)c1sc2c(sc(=O)n2-c2ccccc2)c1O
> 100 µM: 786-0 renal | A498 renal | A549 NSCLC | ACHN renal | CAKI-1 renal | CCRF-CEM leukemia | COLO 205 colon | DLD-1 colon | DMS 114 small cell lung | DMS 273 small cell lung | EKVX NSCLC | HCC-2998 colon | HCT-116 colon | HCT-15 colon | HL-60(TB) leukemia | HOP-18 NSCLC | HOP-62 NSCLC | HOP-92 NSCLC | HT29 colon | IGROV1 ovarian | K-562 leukemia | KM12 colon | KM20L2 colon | LOX IMVI melanoma | LXFL 529 NSCLC | M14 melanoma | M19-MEL melanoma | MALME-3M melanoma | MOLT-4 leukemia | NCI-H226 lung | NCI-H23 lung | NCI-H460 lung | NCI-H522 lung | OVCAR-3 ovarian | OVCAR-4 ovarian | OVCAR-5 ovarian | OVCAR-8 ovarian | RXF 393 renal | RXF-631 renal | SF-268 CNS | SF-295 CNS | SF-539 CNS | SK-MEL-2 melanoma | SK-MEL-28 melanoma | SK-MEL-5 melanoma | SK-OV-3 ovarian | SN12C renal | SNB-19 CNS | SNB-75 CNS | SNB-78 CNS | SR leukemia | TK-10 renal | U251 CNS | UACC-257 melanoma | UACC-62 melanoma | UO-31 renal | XF 498 CNS

Cc1ccc(NC(=O)CC(=O)n2nc(-c3ccccc3)c(N=Nc3ccccc3[N+](=O)[O-])c2-c2ccccc2)cc1
> 100 µM: 786-0 renal | A549 NSCLC | ACHN renal | CAKI-1 renal | CCRF-CEM leukemia | COLO 205 colon | DLD-1 colon | DMS 114 small cell lung | DMS 273 small cell lung | EKVX NSCLC | HCC-2998 colon | HCT-116 colon | HL-60(TB) leukemia | HOP-18 NSCLC | HOP-62 NSCLC | HOP-92 NSCLC | HT29 colon | IGROV1 ovarian | K-562 leukemia | KM12 colon | KM20L2 colon | LOX IMVI melanoma | LXFL 529 NSCLC | M14 melanoma | M19-MEL melanoma | MALME-3M melanoma | MOLT-4 leukemia | NCI-H23 lung | NCI-H460 lung | NCI-H522 lung | OVCAR-3 ovarian | OVCAR-4 ovarian | OVCAR-5 ovarian | OVCAR-8 ovarian | RPMI-8226 leukemia | RXF 393 renal | RXF-631 renal | SF-268 CNS | SF-295 CNS | SF-539 CNS | SK-MEL-2 melanoma | SK-MEL-28 melanoma | SK-MEL-5 melanoma | SK-OV-3 ovarian | SN12C renal | SNB-19 CNS | SNB-75 CNS | SNB-78 CNS | SR leukemia | SW-620 colon | TK-10 renal | U251 CNS | UACC-257 melanoma | UACC-62 melanoma | UO-31 renal | XF 498 CNS

— PubChem BioAssay (NCI)
